The values that follow come from ChEMBL document CHEMBL4808203, “Angiokinase inhibition of VEGFR-2, PDGFR and FGFR and cell growth inhibition in lung cancer: Design, synthesis, biological evaluation and molecular docking of novel azaheterocyclic coumarin derivatives” (Bioorg Med Chem Lett, 2021).

The term IC50 denotes the concentration that gives 50% inhibition.

Experiment [1] has as its system A549. The experiment can be described thus: Cytotoxicity against human A549 cells assessed as cell viability measured by MTT assay. It counts as functional, cell-based. For orientation: Tetrazolium assays rely on reduction of a dye to a coloured formazan, in cell work by metabolically active cells.
Experiment [2] deals with WI-38. Kind of experiment: Cytotoxicity against human WI-38 cells assessed as cell viability measured by MTT assay. It counts as ADME, cell-based.
Experiment [3] concerns A549. The experiment can be described thus: Cell cycle arrest in human A549 cells assessed as accumulation at G2/M phase measured after 24 hrs (reference value: 28.28%). In kind it is functional.
Experiment [4] has as its target Vascular endothelial growth factor receptor 2 (Homo sapiens, UniProt P35968). Kind of experiment: Inhibition of VEGFR2 (unknown origin).
For experiment [5], the target named is Fibroblast growth factor receptor (Homo sapiens, UniProt P22607+P11362+P22455+P21802). Kind of experiment: Inhibition of FGFR (unknown origin). In kind it is protein assay.
For experiment [6], the system named is A549. The experiment can be described thus: Cell cycle arrest in human A549 cells assessed as accumulation at S phase measured after 24 hrs (reference value: 36.58%). In kind it is functional.
Experiment [7] relates to A549. The experiment can be described thus: Induction of apoptosis in human A549 cells assessed as early apoptotic cells measured after 24 hrs by Annexin-V-FITC/propidium iodide staining based assay (reference value: 0.39%). It counts as functional.
Experiment [8] concerns the target Platelet-derived growth factor receptor beta (Homo sapiens, UniProt P09619). Kind of experiment: Inhibition of PDGFRbeta (unknown origin).
Experiment [9] has as its system A549. Kind of experiment: Cell cycle arrest in human A549 cells assessed as accumulation at pre-G1 phase measured after 24 hrs (reference value: 3.83%). It counts as functional.
Experiment [10] addresses Epidermal growth factor receptor (Homo sapiens, UniProt P00533). Kind of experiment: Inhibition of EGFR (unknown origin).
Experiment [11] concerns A549. Kind of experiment: Cell cycle arrest in human A549 cells assessed as accumulation at […] phase measured after 24 hrs (reference value: 42.28%). In kind it is functional.
The subject of experiment [12] is A549. Kind of experiment: Induction of apoptosis in human A549 cells assessed as late apoptotic cells measured after 24 hrs by Annexin-V-FITC/propidium iodide staining based assay (reference value: 0.15%). In kind it is functional.
The test system of experiment [13] is A549. Kind of experiment: Induction of apoptosis in human A549 cells assessed as necrotic cells measured after 24 hrs by Annexin-V-FITC/propidium iodide staining based assay (reference value: 1.29%). It counts as functional.

Each structure is given as a SMILES string.

Chain of Epidermal growth factor receptor (P00533 whole entry): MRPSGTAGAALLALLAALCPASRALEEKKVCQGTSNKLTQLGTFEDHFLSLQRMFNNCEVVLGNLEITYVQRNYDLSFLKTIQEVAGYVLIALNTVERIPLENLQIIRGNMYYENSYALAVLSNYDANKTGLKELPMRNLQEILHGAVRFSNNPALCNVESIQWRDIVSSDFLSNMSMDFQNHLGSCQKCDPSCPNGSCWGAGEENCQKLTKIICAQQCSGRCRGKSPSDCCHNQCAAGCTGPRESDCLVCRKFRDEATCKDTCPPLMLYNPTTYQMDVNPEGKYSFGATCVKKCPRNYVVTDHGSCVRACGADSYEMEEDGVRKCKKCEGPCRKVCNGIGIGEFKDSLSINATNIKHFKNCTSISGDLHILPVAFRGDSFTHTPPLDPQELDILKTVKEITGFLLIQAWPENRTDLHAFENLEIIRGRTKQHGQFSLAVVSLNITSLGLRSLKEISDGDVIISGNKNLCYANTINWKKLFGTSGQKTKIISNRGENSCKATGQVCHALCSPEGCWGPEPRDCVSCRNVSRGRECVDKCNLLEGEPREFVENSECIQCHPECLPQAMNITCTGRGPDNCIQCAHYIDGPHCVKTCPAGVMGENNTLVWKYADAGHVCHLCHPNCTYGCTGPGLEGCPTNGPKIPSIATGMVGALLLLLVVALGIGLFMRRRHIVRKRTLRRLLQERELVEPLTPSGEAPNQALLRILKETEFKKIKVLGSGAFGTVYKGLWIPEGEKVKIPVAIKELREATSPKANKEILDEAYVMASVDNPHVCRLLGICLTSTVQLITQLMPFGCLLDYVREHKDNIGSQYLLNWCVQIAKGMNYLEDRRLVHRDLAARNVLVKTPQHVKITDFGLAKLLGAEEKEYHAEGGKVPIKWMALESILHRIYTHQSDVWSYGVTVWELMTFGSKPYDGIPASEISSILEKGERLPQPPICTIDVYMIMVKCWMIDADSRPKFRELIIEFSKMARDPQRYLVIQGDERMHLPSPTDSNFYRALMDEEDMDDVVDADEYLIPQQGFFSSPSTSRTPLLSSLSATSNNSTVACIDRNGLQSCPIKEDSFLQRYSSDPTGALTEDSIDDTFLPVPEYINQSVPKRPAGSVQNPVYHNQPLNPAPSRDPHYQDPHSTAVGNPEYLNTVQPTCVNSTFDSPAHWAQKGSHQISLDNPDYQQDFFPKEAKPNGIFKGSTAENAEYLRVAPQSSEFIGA
Chain of Vascular endothelial growth factor receptor 2 (P35968 whole entry): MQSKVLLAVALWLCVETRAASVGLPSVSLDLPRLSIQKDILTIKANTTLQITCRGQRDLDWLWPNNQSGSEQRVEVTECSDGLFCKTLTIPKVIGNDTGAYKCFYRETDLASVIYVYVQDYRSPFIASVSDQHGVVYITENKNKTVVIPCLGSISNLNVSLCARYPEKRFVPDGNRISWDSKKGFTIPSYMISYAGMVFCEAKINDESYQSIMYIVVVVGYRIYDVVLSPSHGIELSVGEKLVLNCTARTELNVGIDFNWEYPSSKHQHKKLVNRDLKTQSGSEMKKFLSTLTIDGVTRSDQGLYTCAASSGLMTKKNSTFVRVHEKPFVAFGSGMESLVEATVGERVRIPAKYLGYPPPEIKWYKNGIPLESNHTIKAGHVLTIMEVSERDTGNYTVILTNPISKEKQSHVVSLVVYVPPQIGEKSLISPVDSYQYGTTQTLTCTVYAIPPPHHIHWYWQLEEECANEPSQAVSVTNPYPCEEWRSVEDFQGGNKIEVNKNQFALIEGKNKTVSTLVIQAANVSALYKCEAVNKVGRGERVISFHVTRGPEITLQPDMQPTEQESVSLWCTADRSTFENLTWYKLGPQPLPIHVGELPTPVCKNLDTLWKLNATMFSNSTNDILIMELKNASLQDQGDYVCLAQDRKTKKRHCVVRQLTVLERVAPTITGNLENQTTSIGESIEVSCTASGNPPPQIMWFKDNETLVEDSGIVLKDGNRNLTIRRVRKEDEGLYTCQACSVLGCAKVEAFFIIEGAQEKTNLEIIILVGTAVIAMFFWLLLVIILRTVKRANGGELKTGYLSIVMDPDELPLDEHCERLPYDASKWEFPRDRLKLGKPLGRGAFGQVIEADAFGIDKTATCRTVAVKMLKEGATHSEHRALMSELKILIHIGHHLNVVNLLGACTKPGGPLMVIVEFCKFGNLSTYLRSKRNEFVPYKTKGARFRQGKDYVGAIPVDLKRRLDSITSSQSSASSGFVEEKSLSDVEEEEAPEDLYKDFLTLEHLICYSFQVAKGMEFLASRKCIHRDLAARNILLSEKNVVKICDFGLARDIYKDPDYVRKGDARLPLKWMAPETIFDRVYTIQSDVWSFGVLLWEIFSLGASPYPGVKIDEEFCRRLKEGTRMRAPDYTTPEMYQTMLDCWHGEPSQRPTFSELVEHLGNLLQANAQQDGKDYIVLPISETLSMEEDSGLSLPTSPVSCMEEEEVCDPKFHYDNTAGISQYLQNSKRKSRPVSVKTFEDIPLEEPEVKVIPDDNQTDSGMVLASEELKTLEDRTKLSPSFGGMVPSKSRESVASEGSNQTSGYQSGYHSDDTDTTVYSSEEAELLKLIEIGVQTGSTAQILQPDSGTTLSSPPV
Chain of Platelet-derived growth factor receptor beta (P09619 whole entry): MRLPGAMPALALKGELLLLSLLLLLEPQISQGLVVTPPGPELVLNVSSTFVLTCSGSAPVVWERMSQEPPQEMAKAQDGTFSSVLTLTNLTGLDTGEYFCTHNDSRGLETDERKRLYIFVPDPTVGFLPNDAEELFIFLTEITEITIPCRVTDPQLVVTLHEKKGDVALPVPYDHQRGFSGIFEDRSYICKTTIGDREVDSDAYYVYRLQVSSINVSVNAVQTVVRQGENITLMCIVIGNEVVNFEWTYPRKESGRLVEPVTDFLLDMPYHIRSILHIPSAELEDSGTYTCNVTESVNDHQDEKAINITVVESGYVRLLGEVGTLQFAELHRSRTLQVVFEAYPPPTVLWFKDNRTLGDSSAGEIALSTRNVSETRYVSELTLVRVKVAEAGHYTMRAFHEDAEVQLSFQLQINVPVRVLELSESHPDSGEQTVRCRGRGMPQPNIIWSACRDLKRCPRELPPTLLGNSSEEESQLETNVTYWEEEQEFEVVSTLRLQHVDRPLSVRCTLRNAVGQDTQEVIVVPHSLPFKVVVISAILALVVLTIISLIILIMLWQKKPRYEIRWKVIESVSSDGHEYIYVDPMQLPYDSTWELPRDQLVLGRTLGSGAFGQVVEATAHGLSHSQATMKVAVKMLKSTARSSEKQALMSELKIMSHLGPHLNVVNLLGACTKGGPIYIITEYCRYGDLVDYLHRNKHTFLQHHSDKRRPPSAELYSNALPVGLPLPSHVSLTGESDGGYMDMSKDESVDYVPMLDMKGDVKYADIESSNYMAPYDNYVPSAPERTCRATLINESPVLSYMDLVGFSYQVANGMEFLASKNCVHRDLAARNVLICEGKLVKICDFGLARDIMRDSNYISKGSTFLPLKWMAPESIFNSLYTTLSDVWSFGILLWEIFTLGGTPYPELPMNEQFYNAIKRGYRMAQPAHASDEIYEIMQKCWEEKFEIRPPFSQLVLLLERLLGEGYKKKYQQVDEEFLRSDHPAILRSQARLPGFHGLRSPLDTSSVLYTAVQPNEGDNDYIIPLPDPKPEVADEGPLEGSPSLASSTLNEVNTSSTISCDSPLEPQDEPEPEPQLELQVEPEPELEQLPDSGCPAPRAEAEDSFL

With `COc1ccc(-c2cc(-c3c(O)c4ccccc4oc3=O)nc(N)c2C#N)cc1OC`, the IC50 in experiment [1] came out at 7.38 µM.

For the compound `N#Cc1c(-c2ccc(F)cc2)cc(-c2c(O)c3ccccc3oc2=O)nc1N`, the IC50 in experiment [1] came out at 22.3 µM.

For the compound `COc1cc(-c2cc(-c3c(O)c4ccccc4oc3=O)nc(S)n2)ccc1O`, the IC50 in experiment [1] amounted to 36.1 µM.

As for `O=c1oc2ccccc2c(O)c1-c1cc(-c2ccc(F)cc2)nc(S)n1`, the IC50 in experiment [1] came to 21.1 µM.

As to `O=c1oc2ccccc2c(O)c1-c1cc(-c2c(F)cccc2Cl)nc(O)n1`, the IC50 in [1] stood at 5.1 µM.

With `N#Cc1c(-c2c(F)cccc2Cl)cc(-c2c(O)c3ccccc3oc2=O)nc1N`, in [1], the IC50 is 46.3 µM.

Consider `O=c1oc2ccccc2c(O)c1C1=NNC(c2c(F)cccc2Cl)C1` (stereo not given), for which the IC50 in [1] stood at 23.5 µM.

Take `O=c1oc2ccccc2c(O)c1-c1cc(-c2c(F)cccc2Cl)nc(S)n1`: the IC50 amounted to 30.5 µM in experiment [2] and 3.98 µM in experiment [1].

Take `O=c1oc2ccccc2c(O)c1-c1cc(-c2ccc(F)cc2)nc(O)n1`: the IC50 in experiment [2] was 37.8 µM; in [1], 2.39 µM.

On to `O=c1oc2ccccc2c(O)c1C1=NNC(c2ccc(F)cc2)C1` (stereo not given), for which the IC50 in experiment [2] was determined as 19.9 µM; in experiment [1] it was 1.05 µM.

Take `COc1cccc(-c2cc(-c3c(O)c4ccccc4oc3=O)nc(O)n2)c1`: in experiment [1], the IC50 is 5.55 µM.

Turning to `COc1cccc(-c2cc(-c3c(O)c4ccccc4oc3=O)nc(S)n2)c1`, the IC50 in experiment [1] was 10.2 µM.

As to `COc1ccc(C2CC(c3c(O)c4ccccc4oc3=O)=NN2)cc1OC` (stereo not given), the IC50 in experiment [1] stood at 7.58 µM.

As for `COc1ccc(-c2cc(-c3c(O)c4ccccc4oc3=O)nc(O)n2)cc1OC`, the IC50 in experiment [1] came out at 21.7 µM.

As to `COc1cc(-c2cc(-c3c(O)c4ccccc4oc3=O)nc(N)c2C#N)ccc1O`, in experiment [1], the IC50 was 38.5 µM.

For the compound `COc1cc(-c2cc(-c3c(O)c4ccccc4oc3=O)nc(O)n2)ccc1O`, the IC50 in experiment [1] amounted to 138 µM.

`COc1cc(C2CC(c3c(O)c4ccccc4oc3=O)=NN2)ccc1O` (stereo not given): the IC50 in experiment [1] worked out at 8.4 µM.

Regarding `COc1cccc(-c2cc(-c3c(O)c4ccccc4oc3=O)nc(N)c2C#N)c1`, the Activity in experiment [3] is listed as 11.32%; in [6] it was 58.89%; in experiment [7], 4.67%; in experiment [9] it was 42.14%; in experiment [11] it was 38.55%; in [12] it was 22.37%. The Activity in experiment [13] is reported as 17.12%. The IC50 in experiment [4] worked out at 42 nM; in experiment [5], 0.021 µM; in [8], 20 nM; in [2] it was 53.8 µM; in [10], 33 nM; in [1], 2.38 µM.

In the case of `COc1ccc(-c2cc(-c3c(O)c4ccccc4oc3=O)nc(S)n2)cc1OC`, the IC50 in [1] worked out at 62.6 µM.

`COc1cccc(C2CC(c3c(O)c4ccccc4oc3=O)=NN2)c1` (stereo not given): the IC50 in experiment [1] was found to be 5.91 µM.
